Experimental data published in article PMC8151276, “An Integrated Approach toward NanoBRET Tracers for Analysis of GPCR Ligand Engagement” (Molecules, 2021).

What was measured:
Type in all cases: binding
EDNRA = target: T1, EDNRA (Homo sapiens, UniProt P25101); test: NanoBRET screen HiBiT-EDNRA in HEK293
T1 construct: purchased Promega (in-house HiBiT-GPCR construct library, NanoBRET)
T1 sequence (P25101 21-427): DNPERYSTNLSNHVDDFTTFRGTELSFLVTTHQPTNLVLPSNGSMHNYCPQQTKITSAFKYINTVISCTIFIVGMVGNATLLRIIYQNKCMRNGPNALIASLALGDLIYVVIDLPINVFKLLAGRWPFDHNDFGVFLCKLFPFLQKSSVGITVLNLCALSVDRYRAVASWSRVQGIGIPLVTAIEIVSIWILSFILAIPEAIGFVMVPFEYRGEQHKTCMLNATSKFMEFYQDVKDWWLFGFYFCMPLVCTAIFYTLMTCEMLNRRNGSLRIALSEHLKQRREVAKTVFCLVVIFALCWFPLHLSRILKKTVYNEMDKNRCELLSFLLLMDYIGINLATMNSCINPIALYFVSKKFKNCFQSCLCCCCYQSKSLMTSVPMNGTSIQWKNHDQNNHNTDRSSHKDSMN
Procedure: (§1) Each tracer candidate was screened across the entire library of HiBiT-GPCR constructs using NanoBRET as the detection modality. As depicted in Figure 4A, the specificity of interactions was evaluated through decrease in BRET due to competitive displacement of a bound tracer by excess parental compound. Each tracer was analyzed for binding to each HiBiT-GPCR fusion in the absence and in the presence of competing parental compound. Briefly, HEK293 cells were transfected with HiBiT-GPCR constructs diluted into promoterless DNA to reduce expression and maximize translocation to the cell surface. Each tracer candidate was then screened at concentrations of 1 μM and 0.1 μM across cells expressing these fusions. Cells were treated for 1.5 h with tracer either alone or in the presence of 20 μM competing parental compound (i.e., control). BRET was measured upon addition of purified LgBiT and subsequent complementation with HiBiT genetically fused to a GPCR. The specificity of interactions was assessed through a decrease in BRET signal due to competitive displacement of the bound tracer. To further gauge the robustness of these interactions, the fold response over the control (i.e., BRETtracer/BRETcontrol) was calculated. We chose a 1.5-fold response, which translates to ≥7-fold signal over noise as the minimal threshold required to score an interaction as positive. […]. Below we highlight the screening results obtained for our exemplary fluorescent tracers based on Clozapine, Amitriptyline and AZD1283.
(§2) HiBiT-GPCR DNA constructs were diluted in 10 mM Tris pH 8 to a final concentration of 0.01 μg/μL, arrayed in 96-well plates and stored at −20 °C. For transfection, HEK293 cells were suspended in Opti-MEM (without phenol red) supplemented with 2% fetal bovine serum (Seradigm) and 100 units/mL penicillin–streptomycin (Gibco) at a final concentration of 220,000 cells/mL and dispensed into white 96-well plates at 90 μL/well. Subsequent transfections and screens were carried using an Agilent Bravo Automated Liquid Handling Platform. First, the 96-well HiBiT DNA arrays were diluted 25-fold in Opti-MEM (without serum or phenol red) to a final concentration of 0.0004 μg/μL and 20 μL of the diluted DNAs were transferred into new 96-well plates. Next, promoterless carrier DNA (1 μg/μL) was diluted 25-fold (0.04 μg/μL) and then dispensed into the diluted arrays at 20 μL/well. Following brief mixing, Viafect transfection reagent (Promega) diluted 16-fold into Opti-MEM was dispensed into the plates at 40 μL/well. After mixing by pipetting, plates were incubated for 10 min on the pipetting station deck. The DNA-transfection reagent complexes were then added to plates containing cells. To facilitate the screen, 10 μL of DNA-transfection reagent complexes were added in duplicates to the top 4 and bottom 4 rows, resulting in two identical 48-well arrays per plate. Plates with transfected cells were incubated for 18–20 h at 37 °C/5% CO2. A screen of each tracer across the entire library using two different concentrations requires duplicate plates of transfected cells. Depending on the number of tracers being screened, transfections can be scaled up using the same ratios. The next day, for each tracer, four 20× screening solutions in tracer dilution buffer (Promega) were prepared: two duplicates at final concentration of 20 μM and two duplicates at a final concentration of 2 μM. A competing unmodified compound was added to one of each duplicate at a final concentration of 400 μM. The four resulting solutions were diluted 4-fold in Opti-MEM without serum or phenol red to generate 5× solutions (5 µM and 0.5 µM tracer +/− 100 μM competing compound). To screen the library, a BioTek MultiFlo FX liquid dispenser was used to dispense 22.5 µL of tracer solution to the top 4 rows and 22.5 µL tracer + competing compound solution to the 4 bottom rows. Plates were briefly mixed on an orbital shaker and incubated for 1.5 h at room temperature. […]

FZD8 = target: T2, FZD8 (Homo sapiens, UniProt Q9H461); test: NanoBRET screen HiBiT-FZD8 in HEK293
T2 construct: purchased Promega (in-house HiBiT-GPCR construct library, NanoBRET)
Procedure: as §1, §2

SSTR3 = target: T3, SSTR3 (Homo sapiens, UniProt P32745); test: NanoBRET screen HiBiT-SSTR3 in HEK293
T3 construct: purchased Promega (in-house HiBiT-GPCR construct library, NanoBRET)
Procedure: as §1, §2

T2 sequence (Q9H461 28-694): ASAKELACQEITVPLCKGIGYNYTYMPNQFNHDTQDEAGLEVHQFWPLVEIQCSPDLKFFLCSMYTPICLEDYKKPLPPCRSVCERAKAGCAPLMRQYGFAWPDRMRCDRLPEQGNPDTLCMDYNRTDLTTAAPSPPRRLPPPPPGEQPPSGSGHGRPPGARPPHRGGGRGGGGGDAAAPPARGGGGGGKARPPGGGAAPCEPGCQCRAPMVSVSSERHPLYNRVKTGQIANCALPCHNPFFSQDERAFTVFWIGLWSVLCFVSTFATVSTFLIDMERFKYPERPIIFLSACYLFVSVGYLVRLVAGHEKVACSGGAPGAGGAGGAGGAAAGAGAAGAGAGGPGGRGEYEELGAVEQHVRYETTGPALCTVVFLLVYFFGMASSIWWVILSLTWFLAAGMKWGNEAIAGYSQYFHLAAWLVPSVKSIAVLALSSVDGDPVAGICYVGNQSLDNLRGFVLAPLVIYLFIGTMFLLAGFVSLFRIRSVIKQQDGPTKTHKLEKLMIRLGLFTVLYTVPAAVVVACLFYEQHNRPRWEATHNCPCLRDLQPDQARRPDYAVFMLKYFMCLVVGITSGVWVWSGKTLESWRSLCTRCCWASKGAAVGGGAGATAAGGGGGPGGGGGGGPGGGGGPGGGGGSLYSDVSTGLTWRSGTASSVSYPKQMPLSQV
T3 sequence (P32745 whole entry): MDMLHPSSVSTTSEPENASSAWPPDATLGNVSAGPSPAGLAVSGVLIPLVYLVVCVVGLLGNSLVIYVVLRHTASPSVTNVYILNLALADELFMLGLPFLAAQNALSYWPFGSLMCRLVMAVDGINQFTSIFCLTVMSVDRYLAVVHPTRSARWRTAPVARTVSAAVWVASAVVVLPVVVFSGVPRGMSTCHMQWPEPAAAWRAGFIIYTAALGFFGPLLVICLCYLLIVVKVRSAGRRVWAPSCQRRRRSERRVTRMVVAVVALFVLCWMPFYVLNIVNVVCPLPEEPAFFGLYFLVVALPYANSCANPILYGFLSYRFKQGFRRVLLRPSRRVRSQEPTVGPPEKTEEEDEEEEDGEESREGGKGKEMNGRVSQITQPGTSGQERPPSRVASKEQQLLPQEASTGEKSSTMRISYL

SMILES: CCOC(=O)c1cc(C#N)c(N2CCC(C(=O)NS(=O)(=O)Cc3ccccc3/C=C/C(=O)NCCNC(=O)CCc3ccc4n3[B-](F)(F)[N+]3=C(c5ccc[nH]5)C=CC3=C4)CC2)nc1C [AZD1283-1-NB590]
- NanoBRET Fold Response (EDNRA; EDNRA, 0.1μM): 1.01
- NanoBRET Fold Response (EDNRA; EDNRA, 1μM): 1.02
- NanoBRET Fold Response (FZD8; FZD8, 0.1μM): 1.11
- NanoBRET Fold Response (FZD8; FZD8, 1μM): 0.71
- NanoBRET Fold Response (SSTR3; SSTR3, 0.1μM): 1.07
- NanoBRET Fold Response (SSTR3; SSTR3, 1μM): 1.13

SMILES: N#CN=C(NCCCOc1cccc(CN2CCCCC2)c1)NCCNC(=O)CCOCCOCCOCCOCCNC(=O)CCc1ccc2n1[B-](F)(F)[N+]1=C(c3ccc[nH]3)C=CC1=C2 [Aminopotentidine-2-NB590]
- NanoBRET Fold Response (EDNRA; EDNRA, tracer 0.1μM): 1.03
- NanoBRET Fold Response (EDNRA; EDNRA, tracer 1μM): 1.04
- NanoBRET Fold Response (FZD8; FZD8, tracer 0.1μM): 0.98
- NanoBRET Fold Response (FZD8; FZD8, tracer 1μM): 1.01
- NanoBRET Fold Response (SSTR3; SSTR3, tracer 0.1μM): 1.03
- NanoBRET Fold Response (SSTR3; SSTR3, tracer 1μM): 0.99

SMILES: CN(C)CCC=C1c2ccccc2CCc2ccc(C(=O)NCCNC(=O)CCOCCOCCOCCOCCNC(=O)CCc3ccc4n3[B-](F)(F)[N+]3=C(c5ccc[nH]5)C=CC3=C4)cc21 [Amitriptyline-a-2-NB590]
- NanoBRET Fold Response (EDNRA; tracer at 0.1μM): 0.99
- NanoBRET Fold Response (EDNRA; tracer at 1μM): 0.99
- NanoBRET Fold Response (SSTR3; tracer at 0.1μM): 1.05
- NanoBRET Fold Response (SSTR3; tracer at 1μM): 1.05

SMILES: CN(C)CCC=C1c2ccccc2CCc2ccc(C(=O)NCCNC(=O)CCOCCOCCOCCOCCNC(=O)CCc3ccc4n3[B-](F)(F)[N+]3=C(c5ccc[nH]5)C=CC3=C4)cc21 [Amitriptyline-b-2-NB590]
- NanoBRET Fold Response (EDNRA; tracer at 0.1μM, listed as amitriptyline-b-2-NB590): 1.09
- NanoBRET Fold Response (EDNRA; tracer at 1μM, listed as amitriptyline-b-2-NB590): 0.94
- NanoBRET Fold Response (FZD8; tracer at 0.1μM): 1.03
- NanoBRET Fold Response (FZD8; tracer at 1μM): 1.00
- NanoBRET Fold Response (SSTR3; tracer at 0.1μM): 0.95
- NanoBRET Fold Response (SSTR3; tracer at 1μM): 0.99

SMILES: CN(CCC=C1c2ccccc2CCc2ccccc21)C(=O)CCOCCOCCOCCOCCNC(=O)CCc1ccc2n1[B-](F)(F)[N+]1=C(c3ccc[nH]3)C=CC1=C2 [Amitriptyline-e-2-NB590]
- NanoBRET Fold Response (EDNRA; tracer at 1μM): 1.05

SMILES: COc1ccc2c(n1)c(CCNC(C)=O)cn2CCNC(=O)CCc1ccc2n1[B-](F)(F)[N+]1=C(c3ccc[nH]3)C=CC1=C2 [Azamelatonin-1-NB590]
- NanoBRET Fold Response (EDNRA; 0.1μM tracer): 0.91
- NanoBRET Fold Response (EDNRA; 1μM tracer): 0.91
- NanoBRET Fold Response (FZD8; 0.1μM tracer): 1.39
- NanoBRET Fold Response (FZD8; 1μM tracer): 0.81
- NanoBRET Fold Response (SSTR3; 0.1μM tracer): 1.03
- NanoBRET Fold Response (SSTR3; 1μM tracer): 1.08

SMILES: COc1ccc2[nH]c(-c3ccc(CNC(=O)CCOCCOCCOCCOCCNC(=O)CCc4ccc5n4[B-](F)(F)[N+]4=C(c6ccc[nH]6)C=CC4=C5)cc3)c(CCNC(C)=O)c2n1 [AzomelatoninICO9-2-NB590]
- NanoBRET Fold Response (EDNRA; 0.1μM tracer): 0.87
- NanoBRET Fold Response (EDNRA; 1μM tracer): 0.99
- NanoBRET Fold Response (FZD8; 0.1μM tracer): 0.91
- NanoBRET Fold Response (FZD8; 1μM tracer): 1.03
- NanoBRET Fold Response (SSTR3; 0.1μM tracer): 0.94
- NanoBRET Fold Response (SSTR3; 1μM tracer): 1.01

SMILES: O=C(CCOCCOCCOCCOCCNC(=O)CCc1ccc2n1[B-](F)(F)[N+]1=C(c3ccc[nH]3)C=CC1=C2)NCCCN1CCN(C2=Nc3cc(Cl)ccc3Nc3ccccc32)CC1 [Clozapine-a-2-NB590]
- NanoBRET Fold Response (EDNRA; EDNRA, 0.1μM tracer): 1.04
- NanoBRET Fold Response (EDNRA; EDNRA, 1μM tracer): 0.90
- NanoBRET Fold Response (FZD8; FZD8, 0.1μM tracer): 1.02
- NanoBRET Fold Response (FZD8; FZD8, 1μM tracer): 1.00
- NanoBRET Fold Response (SSTR3; SSTR3, 0.1μM tracer): 0.91
- NanoBRET Fold Response (SSTR3; SSTR3, 1μM tracer): 1.05
